Test results: the supplement of paper PMC8617591

How the values were obtained:
[1] = tested on: Mycobacterium tuberculosis Erdman (autoluminescent); assay: total FIC50 (Loewe) at 50% inhibition, three-drug combination (log2); higher = more antagonistic
Protocol: (§1)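 DiaMOND equipotent three-drug combination dose responses (10 doses, 1.5- or 2-fold spacing, centred on IC90) against autoluminescent M. tuberculosis Erdman in 8 in vitro models. Read-out is OD600, or luminescence for the intracellular and dormancy models, normalised to untreated wells. Hill-fit Einf, AUC25 and GRinf are potency metrics; FIC50 and FIC90 are total Loewe fractional inhibitory concentrations as log2 (negative = synergy).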

[2] = tested on: Mycobacterium tuberculosis Erdman (autoluminescent); assay: total FIC90 (Loewe) at 90% inhibition, three-drug combination (log2); higher = more antagonistic
Protocol: as §1

[3] = tested on: Mycobacterium tuberculosis Erdman (autoluminescent); assay: Einf, fitted maximum growth inhibition of three-drug combination (fraction); higher = stronger maximal inhibition
Protocol: as §1

[4] = tested on: Mycobacterium tuberculosis Erdman (autoluminescent); assay: AUC25, normalised area under dose response up to IC25 (three-drug combination) (fraction (0-1)); higher = more potent at low dose
Protocol: as §1

[5] = tested on: Mycobacterium tuberculosis Erdman (autoluminescent); assay: GRinf, maximum normalised growth rate inhibition (three-drug combination) (unitless (-1 to 1)); higher = less effect (negative = killing)
Protocol: as §1

COc1nc2ccc(Br)cc2cc1[C@@H](c1ccccc1)[C@@](O)(CCN(C)C)c1cccc2ccccc12 [bedaquiline] + CC(=O)NC[C@H]1CN(c2ccc(N3CCOCC3)c(F)c2)C(=O)O1 [linezolid] + CO[C@H]1/C=C/O[C@@]2(C)Oc3c(C)c(O)c4c(O)c(c(/C=N/N5CCN(C6CCCC6)CC5)c(O)c4c3C2=O)NC(=O)/C(C)=C\C=C\[C@H](C)[C@H](O)[C@@H](C)[C@@H](O)[C@@H](C)[C@H](OC(C)=O)[C@@H]1C [rifapentine]
Conditions	AUC25, [4]	Einf, [3]	GRinf, [5]	total FIC50, [1]	total FIC90, [2]
in vitro model: acidic pH 5.7, time point: constant (~7 days, model-specific)	0.108	0.926	-0.244	0.654	–
in vitro model: acidic pH 5.7, time point: terminal (~4-5 doublings, model-specific)	0.0848	0.986	-0.26	0.615	0.662
in vitro model: intracellular J774, time point: constant = terminal	–	0.933	-0.098	–	-0.0532

Conditions	AUC25, [4]	Einf, [3]	GRinf, [5]	total FIC50, [1]	total FIC90, [2]
in vitro model: butyrate, time point: constant (~7 days, model-specific)	0.0812	0.921	-0.0254	0.437	-0.119
in vitro model: butyrate, time point: terminal (~4-5 doublings, model-specific)	0.0511	0.948	-0.00583	0.274	-0.145
in vitro model: cholesterol 0.05 mM, time point: constant (~7 days, model-specific)	0.127	0.761	-0.281	-0.0889	–
in vitro model: cholesterol 0.05 mM, time point: terminal (~4-5 doublings, model-specific)	0.121	0.93	-0.354	0.0726	0.0812
in vitro model: cholesterol-high 0.2 mM, time point: constant (~7 days, model-specific)	0.0873	0.998	-0.89	0.58	1.04
in vitro model: cholesterol-high 0.2 mM, time point: terminal (~4-5 doublings, model-specific)	0.1	1	-0.637	0.404	0.653
in vitro model: dormancy (butyrate + nitrate, low O2), time point: constant (~7 days, model-specific)	0.0901	0.933	0.0917	0.915	1.57
in vitro model: dormancy (butyrate + nitrate, low O2), time point: terminal (~4-5 doublings, model-specific)	0.0384	0.985	-0.095	0.965	0.698
in vitro model: standard 7H9 glycerol, time point: constant = terminal	0.0734	0.939	-0.014	0.253	0.00862
in vitro model: valerate, time point: constant (~7 days, model-specific)	0.0755	0.899	-0.197	0.659	–
in vitro model: valerate, time point: terminal (~4-5 doublings, model-specific)	0.0423	0.945	-0.0248	0.581	0.338

COc1nc2ccc(Br)cc2cc1[C@@H](c1ccccc1)[C@@](O)(CCN(C)C)c1cccc2ccccc12 [bedaquiline] + CC(=O)NC[C@H]1CN(c2ccc(N3CCOCC3)c(F)c2)C(=O)O1 [linezolid] + CO[C@H]1/C=C/O[C@@]2(C)Oc3c(C)c(O)c4c(O)c(c(/C=N/N5CCN(C)CC5)c(O)c4c3C2=O)NC(=O)/C(C)=C\C=C\[C@H](C)[C@H](O)[C@@H](C)[C@@H](O)[C@@H](C)[C@H](OC(C)=O)[C@@H]1C [rifampicin]
Conditions	AUC25, [4]	Einf, [3]	GRinf, [5]	total FIC50, [1]	total FIC90, [2]
in vitro model: acidic pH 5.7, time point: constant (~7 days, model-specific)	0.0983	0.934	-0.257	0.731	–
in vitro model: acidic pH 5.7, time point: terminal (~4-5 doublings, model-specific)	0.0798	0.99	-0.249	0.737	0.559
in vitro model: intracellular J774, time point: constant = terminal	–	0.93	-0.121	–	-0.0392

Conditions	AUC25, [4]	Einf, [3]	GRinf, [5]	total FIC50, [1]	total FIC90, [2]
in vitro model: butyrate, time point: constant (~7 days, model-specific)	0.0847	0.914	-0.0141	0.177	-0.362
in vitro model: butyrate, time point: terminal (~4-5 doublings, model-specific)	0.0706	0.955	-0.0153	0.082	-0.195
in vitro model: cholesterol 0.05 mM, time point: constant (~7 days, model-specific)	0.149	0.744	-0.202	-0.0465	–
in vitro model: cholesterol 0.05 mM, time point: terminal (~4-5 doublings, model-specific)	0.135	0.937	-0.321	4.18	-0.205
in vitro model: cholesterol-high 0.2 mM, time point: constant (~7 days, model-specific)	0.095	0.988	-0.655	0.47	0.612
in vitro model: cholesterol-high 0.2 mM, time point: terminal (~4-5 doublings, model-specific)	0.0921	1	-0.646	0.65	0.504
in vitro model: dormancy (butyrate + nitrate, low O2), time point: constant (~7 days, model-specific)	0.0823	0.941	0.177	0.618	0.781
in vitro model: dormancy (butyrate + nitrate, low O2), time point: terminal (~4-5 doublings, model-specific)	0.0706	0.982	-0.387	0.272	0.748
in vitro model: standard 7H9 glycerol, time point: constant = terminal	0.0714	0.938	-0.0288	0.312	-0.401
in vitro model: valerate, time point: constant (~7 days, model-specific)	0.0495	0.895	0.063	0.886	–
in vitro model: valerate, time point: terminal (~4-5 doublings, model-specific)	0.0389	0.953	-0.012	0.712	0.323

COc1nc2ccc(Br)cc2cc1[C@@H](c1ccccc1)[C@@](O)(CCN(C)C)c1cccc2ccccc12 [bedaquiline] + CC(=O)NC[C@H]1CN(c2ccc(N3CCOCC3)c(F)c2)C(=O)O1 [linezolid] + COc1c(N2C[C@@H]3CCCN[C@@H]3C2)c(F)cc2c(=O)c(C(=O)O)cn(C3CC3)c12 [moxifloxacin]
Conditions	AUC25, [4]	Einf, [3]	GRinf, [5]	total FIC50, [1]	total FIC90, [2]
in vitro model: acidic pH 5.7, time point: constant (~7 days, model-specific)	0.108	0.833	-0.483	0.265	–
in vitro model: acidic pH 5.7, time point: terminal (~4-5 doublings, model-specific)	0.0466	0.934	-0.2	0.43	-0.0182
in vitro model: intracellular J774, time point: constant = terminal	–	0.862	-0.242	–	1.32

Conditions	AUC25, [4]	Einf, [3]	GRinf, [5]	total FIC50, [1]	total FIC90, [2]
in vitro model: butyrate, time point: constant (~7 days, model-specific)	0.0949	0.936	-0.0894	0.691	0.695
in vitro model: butyrate, time point: terminal (~4-5 doublings, model-specific)	0.0643	0.968	-0.0714	0.693	0.691
in vitro model: cholesterol 0.05 mM, time point: constant (~7 days, model-specific)	0.131	0.758	-0.288	0.224	–
in vitro model: cholesterol 0.05 mM, time point: terminal (~4-5 doublings, model-specific)	0.144	0.966	-0.449	-0.0261	-0.532
in vitro model: cholesterol-high 0.2 mM, time point: constant (~7 days, model-specific)	0.11	0.992	-0.761	0.524	0.835
in vitro model: cholesterol-high 0.2 mM, time point: terminal (~4-5 doublings, model-specific)	0.108	1	-0.836	0.657	1.04
in vitro model: dormancy (butyrate + nitrate, low O2), time point: constant (~7 days, model-specific)	0.0831	0.921	0.149	0.916	0.891
in vitro model: dormancy (butyrate + nitrate, low O2), time point: terminal (~4-5 doublings, model-specific)	0.0363	0.989	-0.0826	1.62	1.09
in vitro model: standard 7H9 glycerol, time point: constant = terminal	0.0873	0.971	-0.102	0.152	0.63
in vitro model: valerate, time point: constant (~7 days, model-specific)	0.118	0.902	-0.144	0.407	–
in vitro model: valerate, time point: terminal (~4-5 doublings, model-specific)	0.0703	0.947	-0.0335	0.697	0.911

COc1nc2ccc(Br)cc2cc1[C@@H](c1ccccc1)[C@@](O)(CCN(C)C)c1cccc2ccccc12 [bedaquiline] + CC(=O)NC[C@H]1CN(c2ccc(N3CCOCC3)c(F)c2)C(=O)O1 [linezolid] + NC(=O)c1cnccn1 [pyrazinamide]
Conditions	AUC25, [4]	Einf, [3]	GRinf, [5]	total FIC50, [1]	total FIC90, [2]
in vitro model: acidic pH 5.7, time point: constant (~7 days, model-specific)	0.076	0.806	-0.494	0.125	–
in vitro model: acidic pH 5.7, time point: terminal (~4-5 doublings, model-specific)	0.0793	0.981	-0.392	0.681	0.133
in vitro model: intracellular J774, time point: constant = terminal	–	0.928	-0.132	–	0.532

Conditions	AUC25, [4]	Einf, [3]	GRinf, [5]	total FIC50, [1]	total FIC90, [2]
in vitro model: butyrate, time point: constant (~7 days, model-specific)	0.101	0.947	-0.127	-0.0949	0.0532
in vitro model: butyrate, time point: terminal (~4-5 doublings, model-specific)	0.0821	0.975	-0.116	-0.166	0.0226
in vitro model: cholesterol 0.05 mM, time point: constant (~7 days, model-specific)	0.142	0.767	-0.355	–	–
in vitro model: cholesterol 0.05 mM, time point: terminal (~4-5 doublings, model-specific)	0.141	0.969	-0.491	0.0813	–
in vitro model: cholesterol-high 0.2 mM, time point: constant (~7 days, model-specific)	0.109	0.967	-0.577	0.197	–
in vitro model: cholesterol-high 0.2 mM, time point: terminal (~4-5 doublings, model-specific)	0.105	1	-0.793	0.121	0.311
in vitro model: dormancy (butyrate + nitrate, low O2), time point: constant (~7 days, model-specific)	0.0774	0.92	0.268	-0.772	-0.755
in vitro model: dormancy (butyrate + nitrate, low O2), time point: terminal (~4-5 doublings, model-specific)	0.0469	0.989	-0.0748	-0.0476	-0.67
in vitro model: standard 7H9 glycerol, time point: constant = terminal	0.0828	0.934	-0.00964	0.406	–
in vitro model: valerate, time point: constant (~7 days, model-specific)	0.0833	0.886	-0.102	0.362	–
in vitro model: valerate, time point: terminal (~4-5 doublings, model-specific)	0.0634	0.942	-0.069	0.455	0.406
